Test results reported in PubChem BioAssay AID504645 (Southern Research Specialized Biocontainment Screening …, 2011).
Values joined by “and” are separate entries in the source; they are usually repeats but may differ in a detail not shown here. Equal values may be shown once. Active and inactive are the calls of the source. The rule behind the calls is not given here. Where a SMILES comes first, the peptide text is derived from it. The star is where a group is joined. Cbz = O=C(OCc1ccccc1)*

How the values were obtained:
[1] = tested on: M. tuberculosis H37Rv growth inhibition, glycerol-free medium; assay: Mycobacterium tuberculosis H37Rv growth inhibition, glycerol free medium, confirmatory screen (AID 504645); conditions: for IC90: measured here: 90% growth inhibition;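 for all read-outs here: bacteria grown one week before the viability dye was added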
[2] = as above; conditions: M. tuberculosis H37Rv growth inhibition, glycerol-free medium; at 25 µM (top of the series)

For `Cc1ccc2ccc3ccc(C)nc3c2n1`, the IC50 [1] was 530 nM and the IC90 [1] was 780 nM.

For `CCC(Sc1nc(=O)cc(N)n1-c1ccccc1)C(=O)Nc1cc(C)on1` (centres undefined), the inhibition [2] was 3.38% (inactive).

For `O=C1C(Br)=Cc2cccc3cccc1c23`, the IC50 [1] was 350 nM and the IC90 [1] was 1130 nM.

With `CC(=NCc1ccc2c(c1)OCO2)C1=C(O)c2ccccc2C1=O` the IC50 [1] was 330 nM and the IC90 [1] was 2350 nM.

Work on `CC[N+](C)(CC)CCCCOc1ccc2c(c1)C(=O)c1cc(OCCCC[N+](C)(CC)CC)ccc1-2` yielded an IC50 [1] of 1320 nM and an IC90 [1] of 2130 nM.

With `O=C(C1CCC(CNc2c(N3CCCCC3)c(=O)c2=O)CC1)N1CCCCC1` (centres undefined) the inhibition [2] was 1.49% (inactive).

With `O=C(NCC1COc2ccccc2O1)C1CCC(CNc2c(N3CCCCC3)c(=O)c2=O)CC1` (centres undefined) the inhibition [2] was 4.5% (inactive).

With `CCOC(=O)N1CCC(Nc2c(Nc3cccc(CC)c3)c(=O)c2=O)CC1` the inhibition [2] was 11.5% (inactive).

With `CC1CCCN(C(=O)C2CCC(CNc3c(N4CCCCC4)c(=O)c3=O)CC2)C1` (centres undefined) the IC50 [1] was 19000 nM and the IC90 [1] was over 25000 nM.

`CCC(Sc1ncnc2c1nnn2-c1ccc(F)cc1)C(=O)OC` (centres undefined) gave an IC50 [1] of 11900 nM and an IC90 [1] of over 25000 nM.

For `COC(=O)c1ccc(CNc2c(N3CCCC3)c(=O)c2=O)cc1`, the inhibition [2] was -5.38% (inactive).

`COC(=O)CCc1nc2c(C#N)c(-c3ccc(Cl)cc3)ccn2n1` showed an IC50 [1] of 2540 nM and an IC90 [1] of 3800 nM.

`O=C(NCC(c1cccs1)N1CCOCC1)c1cc([N+](=O)[O-])cc([N+](=O)[O-])c1` (centres undefined) showed an IC50 [1] of 410 nM and an IC90 [1] of 910 nM.

`c1ccc(/N=C2\N=C(Nc3ccccn3)c3ccccc32)nc1` gave an IC50 [1] of 170 nM and an IC90 [1] of 290 nM.

With `CCOC(=O)CSc1nc(C)c(C)c(=O)[nH]1` the inhibition [2] was -1.83% (inactive).

`CC(=O)c1ccc(NC(=O)c2ccc(CNc3c(N4CCOCC4)c(=O)c3=O)cc2)cc1` showed an IC50 [1] of 20000 nM and an IC90 [1] of over 25000 nM.

For `CCSc1nc(C)c(C)c(=O)[nH]1`, the inhibition [2] was 3.06% (inactive).

For `Cc1ccc(NC(=O)COC(=O)CCc2c[nH]c3ccccc23)cc1[N+](=O)[O-]`, the IC50 [1] was 1920 nM and the IC90 [1] was 4350 nM.

For `Cc1ccc2c(c1)c(C1=c3ccccc3=NC1=O)c(O)n2C`, the IC50 [1] was 1460 nM and the IC90 [1] was 3610 nM.

With `CCOC(=O)C(C)Sc1ncnc2c1nnn2-c1ccc(F)cc1` (centres undefined) the IC50 [1] was 1200 nM and 4550 nM and the IC90 [1] was 2920 nM and 8280 nM.

With `Cc1ccc(NC(=O)CSc2nc(N)cc(=O)[nH]2)cc1Cl` the inhibition [2] was 10.7% (inactive).

Molecule `O=C(c1ccc(CNc2c(N3CCCC3)c(=O)c2=O)cc1)N1CC=C(c2ccccc2)CC1` has an IC50 [1] of 2520 nM and an IC90 [1] of 6760 nM.

Molecule `CC(C)NC(=O)c1sc(=S)n2c1[nH]c(=O)c1ccc(C(=O)NCCc3ccc(Cl)cc3)cc12` has an IC50 [1] of 310 nM and an IC90 [1] of 530 nM.

With `CCOc1ccc(NC(=O)CSc2nc(N)c(-c3ccccc3)c(=O)[nH]2)cc1` the inhibition [2] was 2.14% (inactive).

Work on `CC1CC(C)CN(C(=O)c2ccc(CNc3c(N4CCCC4)c(=O)c3=O)cc2)C1` (centres undefined) yielded an IC50 [1] of 6340 nM and an IC90 [1] of over 25000 nM.

`Cc1cccc(N2CCN(C(=O)c3ccc(CNc4c(N5CCC(C)CC5)c(=O)c4=O)cc3)CC2)c1C` showed an IC90 [1] of over 25000 nM.

`CCC(C)Nc1ccc(NC(C)CC)cc1` (centres undefined) gave an IC50 [1] of 1270 nM and an IC90 [1] of 1940 nM.

In the case of `CCOC(=O)COc1ccc(/C=C2\NC(=S)N(CC)C2=O)cc1`, the IC50 [1] is reported as 2620 nM and the IC90 [1] is reported as 4740 nM.

With `O=C(/C=C\c1cccs1)N1CCN(Cc2ccc3c(c2)OCO3)CC1` the IC50 [1] was 360 nM and the IC90 [1] was 1570 nM.

`CCOC(=O)CNC(=O)[C@H](Cc1ccccc1)NC(=O)OCc1ccccc1` (Cbz-Phe-Gly-OEt) showed an IC50 [1] of 2150 nM and an IC90 [1] of 3090 nM.

For `CN(C(=O)CSc1nc2ccccc2c(=O)[nH]1)C1CCCCC1`, the inhibition [2] was 3.96% (inactive).

Molecule `Cc1cc(Br)ccc1NC(=O)c1cnc(N2CCN(c3ccccn3)CC2)c2ccccc12` has an IC50 [1] of 1250 nM and an IC90 [1] of 2000 nM.

For `CCc1cc(=O)[nH]c(SCC(=O)Nc2ccc3c(c2)OCCO3)n1`, the inhibition [2] was 5.24% (inactive).

`CC1CCN(C(=O)C2CCN(c3nnc(-n4cccc4)s3)CC2)CC1` gave an IC50 [1] of 1640 nM and an IC90 [1] of 3340 nM.

With `C=CCn1c(SCC(=O)Nc2cccc3ccccc23)nc(O)c(CC)c1=O` the inhibition [2] was 6.9% (inactive).

In the case of `CCCc1cc(=O)[nH]c(SCC(=O)Nc2cc3c(cc2C(C)=O)OCO3)n1`, the inhibition [2] is reported as 9.03% (inactive).

With `Cc1nc(SCC(=O)N(C)c2ccccc2)[nH]c(=O)c1C` the inhibition [2] was -1.39% (inactive).

For `Cc1cc(=O)[nH]c(SCC(=O)Nc2ncc(S(=O)(=O)c3ccc([N+](=O)[O-])cc3)s2)n1`, the inhibition [2] was 2.85% (inactive).

With `O=c1[nH]c(=S)[nH]c2ccccc12` the inhibition [2] was -4.53% (inactive).

`CCOc1ccc(NC(=O)CSc2nc(O)c(C)c(=O)n2-c2ccc(F)cc2)cc1` gave an IC90 [1] of over 25000 nM.

For `Cc1[nH]c(=S)[nH]c(=O)c1C`, the inhibition [2] was -1.69% (inactive).

With `Cc1ccc(NC(=O)CSc2nc(N)c(-c3ccccc3)c(=O)[nH]2)cc1Cl` the inhibition [2] was 1.17% (inactive).

In the case of `CC(C)CCNC(=O)CSc1nc2ccccc2c(=O)[nH]1`, the IC50 [1] is reported as 2310 nM and the IC90 [1] is reported as 3830 nM.

`Cc1nn2c(NCc3ccccn3)cc(C(C)C)nc2c1-c1ccccc1` gave an IC50 [1] of 1970 nM and an IC90 [1] of 2540 nM.

With `CC1CC(C)CN(C(=O)C2CCC(CNc3c(N4CCCCC4)c(=O)c3=O)CC2)C1` (centres undefined) the IC50 [1] was 13300 nM and the IC90 [1] was over 25000 nM.

For `Cc1c[nH]c(=S)[nH]c1=O`, the inhibition [2] was 3.09% (inactive).

For `CCSc1nc2ccccc2c(=O)[nH]1`, the inhibition [2] was 4.69% (inactive).

For `CCc1c(C)nc(SCC(=O)NC2CCCC2)[nH]c1=O`, the IC50 [1] was 2250 nM and the IC90 [1] was 3210 nM.

With `Cc1nc(SCC(=O)NC2CCCC2)[nH]c(=O)c1C` the IC50 [1] was 9960 nM and the IC90 [1] was 16000 nM.

For `Cc1nc(SCc2ccccc2Cl)[nH]c(=O)c1C`, the inhibition [2] was -3.47% (inactive).

`Cc1cccc(/C=C/C(=O)c2ccc([N+](=O)[O-])o2)c1` showed an IC50 [1] of 450 nM and an IC90 [1] of 650 nM.
